Experiments:
PKCθ = biological target: T1, PKCθ (Homo sapiens, UniProt Q04759); experiment: Ki Pan Vera (PV) potency for PKCθ; assay type: biochemical; conditions: Ki Pan Vera (PV) of PKCθ
T1 construct: purchased Pan Vera
Experimental: (§1) For Ki Pan Vera (PV) of PKCθ, entries identified with “A” had values below 100 nM; entries identified with “B” had values below 1 μM; and entries identified with “C” had values below 10 μM.

PKC alpha = biological target: T2, PKC alpha (Homo sapiens, UniProt P17252); experiment: Ki Pan Vera (PV) potency for PKC alpha; assay type: biochemical; conditions: Ki Pan Vera (PV) of PKC alpha
T2 construct: purchased Pan Vera
Experimental: [The source words this procedure for another target and reports this target under the same test.] as §1

[1] = tested on: anti-CD3 induced interleukin-2 (IL-2) production; experiment: anti-CD3 induced interleukin-2 (IL-2) production in mice; assay type: in vivo
Experimental: The compounds of the invention were also tested in vivo.

PKC delta = biological target: T3, PKC delta (Homo sapiens, UniProt Q05655); experiment: Ki Pan Vera (PV) potency for PKC delta; assay type: biochemical; conditions: Ki Pan Vera (PV) of PKC delta
T3 construct: purchased Pan Vera
T3 sequence (Q05655 whole entry): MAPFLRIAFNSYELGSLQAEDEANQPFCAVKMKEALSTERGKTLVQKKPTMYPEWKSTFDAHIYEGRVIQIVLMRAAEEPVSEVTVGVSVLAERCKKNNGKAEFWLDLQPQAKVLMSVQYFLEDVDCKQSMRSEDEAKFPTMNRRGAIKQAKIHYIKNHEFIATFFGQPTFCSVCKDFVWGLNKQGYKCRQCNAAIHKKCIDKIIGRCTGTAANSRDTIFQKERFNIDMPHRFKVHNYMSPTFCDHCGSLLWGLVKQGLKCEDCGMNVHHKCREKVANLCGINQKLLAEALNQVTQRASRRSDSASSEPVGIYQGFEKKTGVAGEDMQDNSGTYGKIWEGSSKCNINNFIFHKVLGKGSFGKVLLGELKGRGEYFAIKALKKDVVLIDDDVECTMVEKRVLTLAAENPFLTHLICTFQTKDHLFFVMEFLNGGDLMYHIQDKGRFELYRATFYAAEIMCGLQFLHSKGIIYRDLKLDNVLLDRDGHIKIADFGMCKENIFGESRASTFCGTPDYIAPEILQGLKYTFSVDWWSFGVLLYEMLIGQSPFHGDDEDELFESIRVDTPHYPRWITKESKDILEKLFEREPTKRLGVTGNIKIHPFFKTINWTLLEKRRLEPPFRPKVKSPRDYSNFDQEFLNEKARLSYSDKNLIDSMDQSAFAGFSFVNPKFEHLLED
Experimental: [The source words this procedure for another target and reports this target under the same test.] as §1

SGK kinase = biological target: T4, SGK kinase (Homo sapiens, UniProt O00141); experiment: IC50 for SGK kinase (selectivity); assay type: biochemical; conditions: for IC50: read-out: IC50-SGK1
T4 sequence (O00141 1-431): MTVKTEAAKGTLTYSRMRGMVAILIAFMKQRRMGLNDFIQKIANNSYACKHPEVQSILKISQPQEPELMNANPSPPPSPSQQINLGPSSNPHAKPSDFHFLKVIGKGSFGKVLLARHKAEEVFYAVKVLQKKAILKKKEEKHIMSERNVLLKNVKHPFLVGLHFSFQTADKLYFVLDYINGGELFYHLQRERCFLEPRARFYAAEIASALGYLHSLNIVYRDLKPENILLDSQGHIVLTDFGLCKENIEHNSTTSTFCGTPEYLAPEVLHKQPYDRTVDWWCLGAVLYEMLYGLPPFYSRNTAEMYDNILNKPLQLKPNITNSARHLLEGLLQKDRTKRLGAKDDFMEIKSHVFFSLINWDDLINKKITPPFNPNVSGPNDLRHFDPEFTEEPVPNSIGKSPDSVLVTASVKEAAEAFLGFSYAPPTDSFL
Experimental: Entries identified with “1” had values above 250 nM; entries identified with “2” had values above 1 μM; entries identified with “3” had values above 10 μM.

T1 sequence (Q04759 whole entry): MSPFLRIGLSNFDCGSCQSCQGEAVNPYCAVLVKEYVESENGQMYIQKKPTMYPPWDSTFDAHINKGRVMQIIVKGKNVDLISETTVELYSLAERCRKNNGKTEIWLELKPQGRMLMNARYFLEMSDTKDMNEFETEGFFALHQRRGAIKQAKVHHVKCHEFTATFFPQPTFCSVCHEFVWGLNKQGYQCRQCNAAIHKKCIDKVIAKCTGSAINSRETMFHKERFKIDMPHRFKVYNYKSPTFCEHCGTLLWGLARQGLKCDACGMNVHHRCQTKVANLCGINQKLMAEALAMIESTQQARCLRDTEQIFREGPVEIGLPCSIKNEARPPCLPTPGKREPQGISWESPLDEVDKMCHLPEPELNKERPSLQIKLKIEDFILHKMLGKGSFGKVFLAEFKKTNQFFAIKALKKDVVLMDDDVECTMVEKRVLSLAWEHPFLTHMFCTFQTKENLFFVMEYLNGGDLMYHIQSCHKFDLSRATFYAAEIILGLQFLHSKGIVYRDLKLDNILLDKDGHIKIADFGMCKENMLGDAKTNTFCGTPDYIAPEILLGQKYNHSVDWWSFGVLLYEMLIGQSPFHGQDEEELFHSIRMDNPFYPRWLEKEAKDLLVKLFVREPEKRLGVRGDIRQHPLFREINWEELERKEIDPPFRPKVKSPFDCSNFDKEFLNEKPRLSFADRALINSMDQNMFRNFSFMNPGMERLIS

Row | SMILES | Ki (PKCθ) | Ki (PKC alpha) | Ki (PKC delta) | IC50-SGK1 (SGK kinase) | IC50 (SGK kinase) | % inhibition of IL-2 production ([1]; subcutaneous dose 30 mg/kg) | % inhibition of IL-2 production ([1]; subcutaneous dose 1 mg/kg)
1 | C=CC[C@@H]1/C=C(\C)C[C@H](C)C[C@H](OC)[C@H]2O[C@@](O)(C(=O)C(=O)N3CCCC[C@H]3C(=O)O[C@H](/C(C)=C/[C@@H]3CC[C@@H](O)[C@H](OC)C3)[C@H](C)[C@@H](O)CC1=O)[C@H](C)C[C@@H]2OC [FK506, reference compound] | – | – | – | – | – | – | 87%
2 | Clc1ccc(CNc2cc3c(cn2)nc(-c2c(Cl)cccc2Cl)n3CCC2CCNCC2)cc1Cl [Compound 154] | < 10000 nM | > 1000 nM | > 1000 nM | – | > 1000 nM | – | –
3 | C[C@H](Nc1ncc2nc(-c3c(Cl)cccc3Cl)n(CC3CCNC3)c2n1)c1ccccc1F (stereo partly drawn) [Compound 166] | < 1000 nM | > 1000 nM | > 1000 nM | – | > 10000 nM | – | –
4 | Fc1cc(F)cc(CNc2ncc3nc(-c4c(Cl)cccc4Cl)n(CCC4CCNCC4)c3n2)c1 [Compound 146] | < 1000 nM | > 1000 nM | > 1000 nM | Inactive | – | – | –
5 | Fc1ccccc1CNc1ncc2nc(-c3c(F)cccc3Cl)n(C[C@H]3CCCNC3)c2n1 [Compound 156] | < 1000 nM | > 10000 nM | > 1000 nM | – | > 1000 nM | – | –

More lines, main results first:

Row | Ki (PKCθ) | Ki (PKC alpha) | Ki (PKC delta) | IC50-SGK1 (SGK kinase) | IC50 (SGK kinase) | SMILES | % inhibition of IL-2 production ([1]; subcutaneous dose 30 mg/kg) | % inhibition of IL-2 production ([1]; subcutaneous dose 1 mg/kg)
6 | < 100 nM | > 1000 nM | > 250 nM | Inactive | – | Fc1ccc(CNc2ncc3nc(-c4c(Cl)cccc4Cl)n(C[C@@H]4CCCNC4)c3n2)cc1Cl [Compound 100] | 38% | –
7 | < 1000 nM | > 1000 nM | > 1000 nM | Inactive | – | Fc1ccc(CNc2ncc3nc(-c4c(Cl)cccc4Cl)n(C[C@H]4CCNC4)c3n2)cc1Cl [Compound 120] | 35% | –
8 | < 100 nM | > 1000 nM | > 250 nM | – | – | Fc1ccc(CNc2ncc3nc(-c4c(F)cccc4Cl)n(C[C@@H]4CCCNC4)c3n2)cc1F [Compound 113, N-(3,4-difluorobenzyl)-8-(2-chloro-6-fluorophenyl)-9-((R)-piperidin-3-ylmethyl)-9H-purin-2-amine] | 38% | –
9 | < 100 nM | > 1000 nM | > 250 nM | Inactive | – | Fc1ccc(CNc2ncc3nc(-c4c(Cl)cccc4Cl)n(C[C@@H]4CCCNC4)c3n2)cc1F [Compound 101] | 58% | –

Reference: patent US20110046131A1, “PURINES AS PKC-THETA INHIBITORS” (N.V. Organon and Pharmacopeia, LLC, priority 2006, published 2011)
